Source: US9302999B2, “Substituted triazoles as herbicides” (E. I. DU PONT DE NEMOURS AND COMPANY, priority 2012, dated 2016)

Tests used:
Format in all cases: in vivo
[1] = tested on: velvetleaf (Abutilon theophrasti); experiment: Test C pre-/postemergence: velvetleaf
Outline: (§1)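 Preemergence on seeds in loam/sand, postemergence on 2–18 cm (1–4-leaf) plants in peat-based medium; compounds in non-phytotoxic solvent with surfactant. After 13–15 days in greenhouse, visual rating versus controls, 0 (no effect) to 100 (complete control).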

[2] = tested on: lambsquarters (Chenopodium album); experiment: Test C pre-/postemergence: lambsquarters
Outline: as §1

soybean (Glycine max) = experiment: Test C pre-/postemergence: soybean
Outline: as §1

[3] = tested on: velvetleaf (Abutilon theophrasti); experiment: Test A pre-/postemergence: velvetleaf; conditions: for Velvetleaf plant response rating: visual rating on 0 to 100 scale (0 no effect, 100 complete control), approximately ten days
Outline: (§2)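 Visual 0–100 injury ratings (0 no effect, 100 complete control) taken about ten days after treatment, relative to untreated controls. Preemergence treatment was a directed soil spray; postemergence plants were 2–10 cm tall at one- to two-leaf stage. Soil: loam/sand blend.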

[4] = tested on: crabgrass, large (large crabgrass, Digitaria sanguinalis); experiment: Test A pre-/postemergence: crabgrass, large; conditions: for Crabgrass, Large plant response rating: Postemergence; for Plant response rating, Crabgrass, Large: Preemergence
Outline: as §2

[5] = tested on: winter wheat (Triticum aestivum); experiment: Test C pre-/postemergence: winter wheat
Outline: as §1

[6] = tested on: foxtail, giant (giant foxtail, Setaria faberii); experiment: Test A pre-/postemergence: foxtail, giant; conditions: for Foxtail, Giant plant response rating: Postemergence; for Plant response rating, Foxtail, Giant: Preemergence
Outline: as §2

[7] = tested on: pigweed (Amaranthus retroflexus); experiment: Test C pre-/postemergence: pigweed
Outline: as §1

[8] = tested on: nutsedge, yellow (yellow nutsedge, Cyperus esculentus); experiment: Test C pre-/postemergence: nutsedge, yellow
Outline: as §1

[9] = tested on: foxtail, giant (giant foxtail, Setaria faberii); experiment: Test C pre-/postemergence: foxtail, giant
Outline: as §1

[10] = tested on: galium (catchweed bedstraw, Galium aparine); experiment: Test C pre-/postemergence: galium
Outline: as §1

[11] = tested on: blackgrass (Alopecurus myosuroides); experiment: Test C pre-/postemergence: blackgrass
Outline: as §1

[12] = Postemergence, 31 g ai/ha, scale 0 to 100 (0 no effect, 100 complete control)
[13] = Postemergence, 62 g ai/ha, scale 0 to 100 (0 no effect, 100 complete control)
[14] = Postemergence, 125 g ai/ha, scale 0 to 100, 0 no effect, 100 complete control
[15] = Postemergence, 250 g ai/ha, scale 0 to 100
[16] = Postemergence, 125 g ai/ha, 0 to 100 scale, 0 is no effect, 100 is complete control
[17] = Preemergence, 125 g ai/ha, 0 to 100 scale where 0 is no effect and 100 is complete control
[18] = Preemergence, 500 g ai/ha, 0 to 100 scale (0 no effect, 100 complete control)
[19] = 125 g ai/ha, 0 to 100 scale, 0 is no effect, 100 is complete control
[20] = 500 g ai/ha, visual rating on 0 to 100 scale (0 no effect, 100 complete control), approximately ten days
[21] = 125 g ai/ha, 0 to 100 scale where 0 is no effect and 100 is complete control
[22] = 500 g ai/ha, 0 to 100 scale (0 no effect, 100 complete control)
[23] = Preemergence, 31 g ai/ha, scale of 0 to 100, 0 is no effect, 100 is complete control
[24] = Preemergence, 62 g ai/ha, scale of 0 to 100, 0 is no effect, 100 is complete control
[25] = Preemergence, 125 g ai/ha, scale 0 to 100, 0 no effect, 100 complete control
[26] = Preemergence, 250 g ai/ha, scale 0 to 100, 0 no effect, 100 complete control

## Cc1nn(-c2ccnc(C(F)(F)F)c2)nc1Cc1ccnc(C(F)(F)F)c1 [Compound 137]
[1]; [12]
  Plant response rating, Velvetleaf: 35
[1]; [13]
  Plant response rating, Velvetleaf: 55
[1]; [14]
  Plant response rating, Velvetleaf: 55
[1]; [15]
  Plant response rating, Velvetleaf: 70
[2]; [12]
  Plant response rating, Lambsquarters: 100
[2]; [13]
  Plant response rating, Lambsquarters: 100
[2]; [14]
  Plant response rating, Lambsquarters: 100
[2]; [15]
  Plant response rating, Lambsquarters: 100
Soybean (Glycine max); [12]
  Plant response rating, Soybean: 40
Soybean (Glycine max); [13]
  Plant response rating, Soybean: 55
Soybean (Glycine max); [14]
  Plant response rating, Soybean: 55
Soybean (Glycine max); [15]
  Plant response rating, Soybean: 60
[3]; [16]
  Plant response rating, Velvetleaf: 80
[3]; Postemergence, 500 g ai/ha
  Velvetleaf plant response rating: 100
[3]; [17]
  Plant response rating, Velvetleaf: 20
[3]; [18]
  Plant response rating, Velvetleaf: 20
[4]; [19]
  Crabgrass, Large plant response rating: 90
[4]; [20]
  Crabgrass, Large plant response rating: 90
[4]; [21]
  Plant response rating, Crabgrass, Large: 90
[4]; [22]
  Plant response rating, Crabgrass, Large: 90
[5]; [12]
  Plant response rating, Wheat: 10
[5]; [13]
  Plant response rating, Wheat: 15
[5]; [14]
  Plant response rating, Wheat: 30
[5]; [15]
  Plant response rating, Wheat: 35
[6]; [19]
  Foxtail, Giant plant response rating: 90
[6]; [20]
  Foxtail, Giant plant response rating: 90
[6]; [21]
  Plant response rating, Foxtail, Giant: 90
[6]; [22]
  Plant response rating, Foxtail, Giant: 90
[7]; [12]
  Plant response rating, Pigweed: 98
[7]; [13]
  Plant response rating, Pigweed: 100
[7]; [14]
  Plant response rating, Pigweed: 100
[7]; [15]
  Plant response rating, Pigweed: 100
[8]; [12]
  Plant response rating, Nutsedge, Yellow: 5
[8]; [13]
  Plant response rating, Nutsedge, Yellow: 10
[8]; [14]
  Plant response rating, Nutsedge, Yellow: 10
[8]; [15]
  Plant response rating, Nutsedge, Yellow: 15
[9]; [12]
  Plant response rating, Foxtail, Giant: 10
[9]; [13]
  Plant response rating, Foxtail, Giant: 40
[9]; [15]
  Plant response rating, Foxtail, Giant: 50
[10]; [12]
  Plant response rating, Galium: 45
[10]; [13]
  Plant response rating, Galium: 70
[10]; [14]
  Plant response rating, Galium: 70
[10]; [15]
  Plant response rating, Galium: 70
[11]; [12]
  Plant response rating, Blackgrass: 10
[11]; [13]
  Plant response rating, Blackgrass: 30
[11]; [14]
  Plant response rating, Blackgrass: 35
[11]; [15]
  Plant response rating, Blackgrass: 60

## Fc1ccc(-n2nc(Cc3ccnc(C(F)(F)F)c3)c(OCC(F)(F)F)n2)cc1 [Compound 142]
[1]; [12]
  Plant response rating, Velvetleaf: 30
[1]; [13]
  Plant response rating, Velvetleaf: 50
[1]; [14]
  Plant response rating, Velvetleaf: 55
[1]; [15]
  Plant response rating, Velvetleaf: 75
[1]; [23]
  Plant response rating, Velvetleaf: 35
[1]; [24]
  Plant response rating, Velvetleaf: 75
[1]; [25]
  Plant response rating, Velvetleaf: 80
[1]; [26]
  Plant response rating, Velvetleaf: 100
[2]; [12]
  Plant response rating, Lambsquarters: 80
[2]; [13]
  Plant response rating, Lambsquarters: 98
[2]; [14]
  Plant response rating, Lambsquarters: 98
[2]; [15]
  Plant response rating, Lambsquarters: 98
[2]; [23]
  Plant response rating, Lambsquarters: 80
[2]; [24]
  Plant response rating, Lambsquarters: 90
[2]; [25]
  Plant response rating, Lambsquarters: 95
[2]; [26]
  Plant response rating, Lambsquarters: 98
Soybean (Glycine max); [12]
  Plant response rating, Soybean: 50
Soybean (Glycine max); [13]
  Plant response rating, Soybean: 55
Soybean (Glycine max); [14]
  Plant response rating, Soybean: 55
Soybean (Glycine max); [15]
  Plant response rating, Soybean: 55
Soybean (Glycine max); [23]
  Plant response rating, Soybean: 0
Soybean (Glycine max); [24]
  Plant response rating, Soybean: 5
Soybean (Glycine max); [25]
  Plant response rating, Soybean: 5
Soybean (Glycine max); [26]
  Plant response rating, Soybean: 20
[3]; [16]
  Plant response rating, Velvetleaf: 100
[3]; Postemergence, 500 g ai/ha
  Velvetleaf plant response rating: 100
[3]; [17]
  Plant response rating, Velvetleaf: 60
[3]; [18]
  Plant response rating, Velvetleaf: 90
[4]; [19]
  Crabgrass, Large plant response rating: 100
[4]; [20]
  Crabgrass, Large plant response rating: 100
[4]; [21]
  Plant response rating, Crabgrass, Large: 100
[4]; [22]
  Plant response rating, Crabgrass, Large: 100
[5]; [12]
  Plant response rating, Wheat: 15
[5]; [13]
  Plant response rating, Wheat: 25
[5]; [14]
  Plant response rating, Wheat: 40
[5]; [15]
  Plant response rating, Wheat: 45
[5]; [24]
  Plant response rating, Wheat: 5
[5]; [25]
  Plant response rating, Wheat: 35
[5]; [26]
  Plant response rating, Wheat: 50
[6]; [19]
  Foxtail, Giant plant response rating: 100
[6]; [20]
  Foxtail, Giant plant response rating: 100
[6]; [21]
  Plant response rating, Foxtail, Giant: 100
[6]; [22]
  Plant response rating, Foxtail, Giant: 100
[7]; [12]
  Plant response rating, Pigweed: 98
[7]; [13]
  Plant response rating, Pigweed: 98
[7]; [14]
  Plant response rating, Pigweed: 98
[7]; [15]
  Plant response rating, Pigweed: 98
[7]; [23]
  Plant response rating, Pigweed: 98
[7]; [24]
  Plant response rating, Pigweed: 98
[7]; [25]
  Plant response rating, Pigweed: 100
[7]; [26]
  Plant response rating, Pigweed: 100
[8]; [12]
  Plant response rating, Nutsedge, Yellow: 5
[8]; [13]
  Plant response rating, Nutsedge, Yellow: 5
[8]; [14]
  Plant response rating, Nutsedge, Yellow: 15
[8]; [15]
  Plant response rating, Nutsedge, Yellow: 20
[8]; [23]
  Plant response rating, Nutsedge, Yellow: 0
[8]; [25]
  Plant response rating, Nutsedge, Yellow: 0
[8]; [26]
  Plant response rating, Nutsedge, Yellow: 0
[9]; [12]
  Plant response rating, Foxtail, Giant: 20
[9]; [13]
  Plant response rating, Foxtail, Giant: 75
[9]; [14]
  Plant response rating, Foxtail, Giant: 80
[9]; [15]
  Plant response rating, Foxtail, Giant: 90
[9]; [23]
  Plant response rating, Foxtail, Giant: 100
[9]; [24]
  Plant response rating, Foxtail, Giant: 100
[9]; [25]
  Plant response rating, Foxtail, Giant: 100
[9]; [26]
  Plant response rating, Foxtail, Giant: 100
[10]; [12]
  Plant response rating, Galium: 80
[10]; [13]
  Plant response rating, Galium: 80
[10]; [14]
  Plant response rating, Galium: 90
[10]; [15]
  Plant response rating, Galium: 90
[10]; [23]
  Plant response rating, Galium: 60
[10]; [24]
  Plant response rating, Galium: 80
[10]; [25]
  Plant response rating, Galium: 100
[10]; [26]
  Plant response rating, Galium: 100
[11]; [12]
  Plant response rating, Blackgrass: 55
[11]; [13]
  Plant response rating, Blackgrass: 60
[11]; [14]
  Plant response rating, Blackgrass: 80
[11]; [15]
  Plant response rating, Blackgrass: 90
[11]; [23]
  Plant response rating, Blackgrass: 90
[11]; [24]
  Plant response rating, Blackgrass: 90
[11]; [25]
  Plant response rating, Blackgrass: 90
[11]; [26]
  Plant response rating, Blackgrass: 90
